Data: the NIST ThermoML archive (doi:10.1016/j.jct.2015.09.016)

Tests used:
[1] = 101.33 kPa, Liquid; for electrical conductivity: Alternating current cell with electrodes; for viscosity: Falling or rolling sphere viscometry; for speed of sound: Sing-around technique in a fixed-path interferometer; for mass density: Vibrating tube method
[2] = refractive index (Na D-line) (dimensionless); conditions: 303.15 K; 101.33 kPa; Liquid; Standard Abbe refractometry
[3] = wn = mass fraction of the nth substance listed; conditions: 303.15 K, 100 kPa, Liquid; for electrical conductivity: Alternating current cell with electrodes; for viscosity: Falling or rolling sphere viscometry; for speed of sound: Frequency=3 MHz, Sing-around technique in a fixed-path interferometer; for mass density: Vibrating tube method

CCCC[NH2+]CCO.O=C([O-])C(F)(F)F [N-(2-hydroxyethyl)butan-1-aminium 2,2,2-trifluoroacetate]
[1]
Conditions	electrical conductivity [S/m]	mass density [kg/m3]	speed of sound [m/s]	viscosity [mPa·s]
303.15 K	0.0391	1203.34	1282.6	211.7
308.15 K	0.0494	1198.07	1270	171.1
313.15 K	0.0596	1194.18	1257.7	135.3
318.15 K	0.0703	1190.28	1245.7	104.6
323.15 K	0.0811	1186.37	1233.9	81.7
328.15 K	0.0916	1182.48	1222.4	64.7
333.15 K	0.103	1178.6	1211	52.3
338.15 K	0.116	1174.73	1199.8	42.8
343.15 K	0.128	1170.87	1188.7	35.6

Conditions	refractive index
[2]	1.4126

CCCC[NH2+]CCO.O=C([O-])C(F)(F)F [N-(2-hydroxyethyl)butan-1-aminium 2,2,2-trifluoroacetate] + O
[3]
Conditions	electrical conductivity [S/m]	mass density [kg/m3]	speed of sound [m/s]	viscosity [mPa·s]
w2 = 0.002186	0.0391	1203.34	1282.6	211.7
w2 = 0.003652	0.0393	–	–	–
w2 = 0.003864	–	1203.51	1282.9	211.1
w2 = 0.004819	0.0394	–	–	–
w2 = 0.005373	–	1203.68	1283.2	210.4
w2 = 0.006342	0.0396	–	–	–
w2 = 0.006759	–	1203.81	1283.4	209.8
w2 = 0.007483	0.0398	–	–	–
w2 = 0.008675	–	1204	1283.7	209.1

CCCC[NH2+]CCO.O=[N+]([O-])[O-] [N-(2-hydroxyethyl)butan-1-aminium nitrate]
[1]
Conditions	electrical conductivity [S/m]	mass density [kg/m3]	speed of sound [m/s]	viscosity [mPa·s]
303.15 K	0.0583	1114.69	1608.3	272.1
308.15 K	0.0701	1111.58	1595.7	202.9
313.15 K	0.085	1108.47	1583.5	154
318.15 K	0.0982	1105.35	1571.5	119.2
323.15 K	0.115	1102.25	1559.7	93.3
328.15 K	0.136	1099.15	1548.1	74.1
333.15 K	0.16	1096.07	1536.7	59.6
338.15 K	0.182	1093	1525.4	48.8
343.15 K	0.2	1089.95	1514.3	40.6

Conditions	refractive index
[2]	1.4675

CCCC[NH2+]CCO.O=[N+]([O-])[O-] [N-(2-hydroxyethyl)butan-1-aminium nitrate] + O
[3]
Conditions	electrical conductivity [S/m]	mass density [kg/m3]	speed of sound [m/s]	viscosity [mPa·s]
w2 = 0.002318	0.0583	1114.69	1608.3	272.1
w2 = 0.003573	0.0585	–	–	–
w2 = 0.003967	–	1114.88	1608.7	271.5
w2 = 0.004837	0.0587	–	–	–
w2 = 0.005068	–	1115.01	1609	271.1
w2 = 0.006108	0.0589	–	–	–
w2 = 0.006904	–	1115.21	1609.4	270.5
w2 = 0.007452	0.0591	–	–	–
w2 = 0.008717	–	1115.39	1609.8	269.8
